Laboratory results as given in ChEMBL document CHEMBL1156142, “COX, LOX and platelet aggregation inhibitory properties of Lauraceae neolignans” (Bioorg Med Chem Lett, 2009).
pIC50: −log10 of the molar value.

Columns and labels:
[1] = species: Ovis aries; assay: Selectivity ratio of IC50 for ovine COX-1 to IC50 for ovine COX-2
[2] = Antiplatelet activity in rabbit platelets assessed as inhibition of arachidonic acid-induced platelet aggregation; format: functional, cell-based, Oryctolagus cuniculus
[3] = Antiplatelet activity in rabbit platelets assessed as inhibition of platelet activating factor-induced platelet aggregation; format: functional, cell-based, Oryctolagus cuniculus
[4] = biological target: T1, Prostaglandin G/H synthase 1 (Ovis aries, UniProt P05979)
T1 sequence (P05979 whole entry): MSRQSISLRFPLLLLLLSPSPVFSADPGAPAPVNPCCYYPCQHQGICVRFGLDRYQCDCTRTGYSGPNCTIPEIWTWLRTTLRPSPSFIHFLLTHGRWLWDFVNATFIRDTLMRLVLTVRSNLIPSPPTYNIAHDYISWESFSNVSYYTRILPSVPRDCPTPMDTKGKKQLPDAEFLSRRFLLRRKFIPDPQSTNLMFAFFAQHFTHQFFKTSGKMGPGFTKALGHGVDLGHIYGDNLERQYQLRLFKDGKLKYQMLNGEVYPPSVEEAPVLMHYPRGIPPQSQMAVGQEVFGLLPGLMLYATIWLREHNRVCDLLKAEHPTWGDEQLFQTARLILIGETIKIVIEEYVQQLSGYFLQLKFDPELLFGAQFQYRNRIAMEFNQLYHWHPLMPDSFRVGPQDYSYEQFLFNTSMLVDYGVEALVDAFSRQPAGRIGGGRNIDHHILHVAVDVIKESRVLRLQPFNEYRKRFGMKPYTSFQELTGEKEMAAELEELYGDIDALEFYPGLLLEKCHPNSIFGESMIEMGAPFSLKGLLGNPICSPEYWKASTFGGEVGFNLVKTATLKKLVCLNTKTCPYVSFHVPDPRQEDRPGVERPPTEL
Description: Inhibition of ovine COX-1 assessed as inhibition of transformation of AA to PGH2 by EIA

[5] = Inhibition of potato LOX-5 assessed as inhibition of hydroperoxide production after 5 mins by EIA; design: species or system Solanum tuberosum
[6] = Antiplatelet activity in rabbit platelets assessed as inhibition of adenosin 5'-diphosphate-induced platelet aggregation; format: functional, cell-based; details: Oryctolagus cuniculus
[7] = Oryctolagus cuniculus, Platelet

Structure (SMILES)	Ratio IC50 [1]	pIC50 [2, 7]	pIC50 [3, 7]	pIC50 [4]	pIC50 [5]	pIC50 [6]	pIC50 ([2]; platelet)	pIC50 ([3]; platelet)
O=C(O)/C=C/c1ccc(O)c(O)c1	3.74							
C=CCC1=C[C@]2(OC)[C@@H](O)[C@@](OC)(C1=O)[C@@H](c1cc(OC)c(OC)c(OC)c1)[C@@H]2C (stereo in doubt; 8) [NECTAMAZIN B]		4.16	5.86	4.14	3.81	< 3.00		
C=CCC1=C[C@]2(OC)C(=O)C(C1=O)[C@H](c1cc(OC)c(OC)c(OC)c1)[C@H]2C [4'-OXO-MACROPHYLLIN B]		4.10	5.13	3.45	4.03	3.28		
Cc1ccc(-c2cc(C(F)(F)F)nn2-c2ccc(S(N)(=O)=O)cc2)cc1 [CELECOXIB]					4.13			
C=CCC1=C[C@@]2(OC)[C@H](C)[C@@H](c3cc(OC)c4c(c3)OCO4)[C@H](C1=O)[C@@H]2O [CINERIN B]		4.37	5.82	4.49	3.84	< 3.00		
C=CCC1=C[C@]2(OC)[C@H](C)[C@@H](c3cc(OC)c4c(c3)OCO4)[C@](OC)(C1=O)[C@H]2O [CINERIN C]		4.07	5.96	4.55	3.87	< 3.00		
C[C@@H]1C(=O)O[C@H]2[C@H](O)[C@@]34[C@H]5C[C@@H](C(C)(C)C)[C@]36[C@@H](OC(=O)[C@@H]6O)O[C@@]4(C(=O)O5)[C@@]12O [GINKOLIDE B]		4.12	6.03			< 3.00		
C=CCC1=C[C@@]2(OC)[C@H](C)[C@@H](c3ccc(OC)c(OC)c3)[C@H](C1=O)[C@@H]2O [KADSURENIN C]		4.26	5.63	4.41	3.93	< 3.00		
C=CCc1cc(OC)c2oc(-c3ccc4c(c3)OCO4)cc2c1 [NEOLIGNAN 9-NOR-7,8-DEHYDRO-ISOLICARIN B]	329	3.37	3.34	3.46	3.97	< 3.00		
C=CCC1=C[C@@]2(OC)[C@H](C)[C@@H](c3ccc4c(c3)OCO4)[C@H](C1=O)[C@H]2O [OCOPHYLOL A]		4.34	5.51	4.05	3.59	3.20		
C=CCC1=C[C@@]2(OC)[C@H](C)[C@@H](c3ccc(OC)c(OC)c3)[C@H](C1=O)[C@H]2O [OCOPHYLOL B]		4.41	5.52	4.02	3.72	3.14		
C=CCC1=C[C@@]2(OC)[C@H](C)[C@@H](c3cc(OC)c(OC)c(OC)c3)[C@H](C1=O)[C@H]2O [OCOPHYLOL C]		4.31	5.63	4.14	3.75	< 3.00		

Further compounds by rising pIC50 [5], results first:

Ratio IC50 [1]	pIC50 [2, 7]	pIC50 [3, 7]	pIC50 [4]	pIC50 [5]	pIC50 [6]	pIC50 ([2]; platelet)	pIC50 ([3]; platelet)	Structure (SMILES)
	4.12		3.78	4.34	4.05			C=CCC1=C[C@]2(OC)C(=O)[C@@](OC)(C1=O)[C@H](c1cc(OC)c3c(c1)OCO3)[C@H]2C [CINERIN A]
			3.82	4.37		4.36	5.76	C=CCC1=C[C@]2(OC)[C@@H](O)[C@@](OC)(C1=O)[C@@H](c1cc(OC)c(OC)c(OC)c1)[C@@H]2C (stereo in doubt; 9) [NECTAMAZIN B]
	4.63	5.17	3.67	4.72	3.92			C=CCC1=C[C@]2(OC)C(=O)C([C@@H]1O)[C@H](c1cc(OC)c(OC)c(OC)c1)[C@H]2C [MACROPHYLLIN B]
426	3.54	3.31	3.44	4.84	4.26			C/C=C/c1cc(OC)c2c(c1)[C@H](C)[C@@H](c1ccc3c(c1)OCO3)O2 [(-)-LICARIN B]
	4.67	5.42	4.13	4.89	< 3.00			C=CCC1=C[C@@]2(OC)[C@@H](C)[C@H](c3cc(OC)c(OC)c(OC)c3)[C@](OC)([C@H]1O)[C@H]2O [NECTAMAZIN C]
35.5	3.31	< 3.00	3.51	5.01	3.95			C/C=C/c1cc(OC)c2c(c1)[C@H](C)[C@@H](c1ccc(O)c(OC)c1)O2 [LICARIN A]
	4.59	5.18	3.73	5.05				C=CCC1=C[C@@]2(OC)C(=O)[C@](OC)([C@H](c3cc(OC)c4c(c3)OCO4)[C@H]2C)[C@H]1O [CINERIN D]
412	3.37	3.07	3.99	5.10	4.01			COc1cc(-c2oc3c(OC)cc(C=O)cc3c2C)cc(OC)c1OC [OCOPHYLLALS B]
146	3.65	4.19	3.65	5.11	4.12			C/C=C/c1cc(OC)c2c(c1)[C@@H](C)[C@H](c1ccc(OC)c(OC)c1)O2 [ACUMINATIN]
436	3.25	< 3.00	3.91	5.14	3.99			COc1cc(C=O)cc2c(C)c(-c3ccc4c(c3)OCO4)oc12 [OCOPHYLLALS A]
157	3.49	3.25	3.54	5.26	4.25			C/C=C/c1cc(OC)c2c(c1)[C@@H](C)[C@H](c1ccc3c(c1)OCO3)O2 [LICARINE B]
12.5	3.25	< 3.00	3.61	5.43	3.78			C/C=C/c1cc(OC)c2c(c1)[C@@H](C)[C@H](c1ccc(O)c(OC)c1)O2 [LICARINE A]
10.2	3.84	4.74	3.75	5.74	3.91			C=CCc1cc2c(cc1O)O[C@H](c1ccc3c(c1)OCO3)[C@H]2C [LILIFLOL A]
	4.41	5.48	4.11	6.21				C=CCC1=C[C@@]2(OC)C(=CC1=O)O[C@H](c1cc(OC)c(OC)c(OC)c1)[C@H]2C [MIRANDIN A]
15.6	4.23	4.12	4.05	6.70	3.83			C=CCC1=C[C@]2(OC)C(=CC1=O)O[C@@H](c1ccc(OC)c(OC)c1)[C@H]2C [(+)-DENUDATIN B]
	5.27	4.99		6.79	3.26			CC(=O)Oc1ccccc1C(=O)O [ASPIRIN]
12.6	5.25	6.82	4.59	6.98	4.42			C=CCC1=C[C@@]2(OC)C(=CC1=O)O[C@H](c1ccc(OC)c(OC)c1)[C@H]2C [KADSURENONE]
